In US6492371B2, “Use of cyclic GMP-specific phosphodiesterase inhibitors for treatment of Parkinson's Disease” (priority 2000, dated 2002):
Where a name gives a salt, the structure may show the parent alone.

How the values were obtained:
[1] = oral, monotherapy; rapid peripheral metabolism by dopa decarboxylase and COMT; cited from earlier work
[2] = test system: effectiveness of L-dopa and dopaminergic ergot derivatives in PD; details: therapy of PD, combination with L-dopa and lisuride; cited from earlier work
[3] = test system: anti-parkinson action of bromocriptine; details: patients with PD, concomitant caffeine and bromocriptine; cited from earlier work
Parkinson's symptoms = test: Administration of a PDE5 inhibitor compound to a patient suffering from Parkinson's Disease; assay type: in vivo, human; details: one patient with PD administered the PDE5 inhibitor
Text: The PDE5 inhibitor was 5-(2-ethoxy-5-(4-methyl-1-piperazinylsulphonyl)phenyl)-1-methyl-3-n-propyl-1,6-dihydro-7H-pyrazolo[4,3-d]pyrimidin-7-one, otherwise known as sildenafil citrate (Viagra®).

SMILES: N[C@@H](Cc1ccc(O)c(O)c1)C(=O)O [L-dopa]
- fraction of orally administered L-dopa that penetrates into brain [1]: Less than 1%

SMILES: COc1ccc(C2CNC(=O)C2)cc1OC1CCCC1 (stereo not shown) [Rolipram, rolipram]
- potentiation of the effect of L-dopa and lisuride [2]: failed to potentiate the effect of L-dopa and lisuride

SMILES: Cn1c(=O)c2c(ncn2C)n(C)c1=O [caffeine]
- potentiation of the anti-parkinson action of bromocriptine [3]: failed to potentiate the anti-parkinson action of bromocriptine

SMILES: CCCc1nn(C)c2c(=O)[nH]c(-c3cc(S(=O)(=O)N4CCN(C)CC4)ccc3OCC)nc12 [sildenafil citrate, 5-(2-ethoxy-5-(4-methyl-1-piperazinylsulphonyl)phenyl)-1-methyl-3-n-propyl-1,6-dihydro-7H-pyrazolo[4,3-d]pyrimidin-7-one]
- effect on Parkinson's symptoms noted by the patient (Parkinson's symptoms): an improvement in their Parkinson's symptoms
